Results from article PMC8807399, “Synthesis, Characterization, and in vivo Evaluation of a Novel Potent Autotaxin-Inhibitor” (Frontiers in Pharmacology, 2022).
Values after ≈ are worked out from the molar mass of the structure shown.

Columns and labels:
[1] = Lipophilicity (LogD, octanol/buffer); type: physicochemical; settings: 1-octanol / 25 mM phosphate buffer; pH 7.4, octanol/25 mM phosphate buffer
Method: The experiment started with the accurate coating of the hydrophobic layer (0.45 µm PVDF membranes), which was fixed on the bottom of each DIFI©-tube (Weidmann Medical Technology AG, Rapperswil, Switzerland). The coated membranes were then connected to a 96-well plate which has been prefilled with exactly 150 µl of the selected aqueous buffer solution (25 mM phosphate buffer, pH 7.4). The buffer solution contains already the compound of interest with a maximum starting concentration of 85 µM. To expand the measurement range down to logD = −0.5 and up to logD = +4, it is necessary to carry out the procedure at two different octanol/water ratios: One with an excess of octanol for hydrophilic compounds (logD < 1) and one with a low volume of octanol for the lipophilic compounds (logD > 1). Therefore, parts of the DIFI©-tubes were filled with 15 µl 1-octanol and another part with 1 µl 1-octanol. The resulting sandwich guarantees that the membrane was completely dipped in the buffer solution. The plate was then sealed and shaken for 12 h at room temperature (23°C). During this time, the substance is distributed between the layer, the octanol, and the buffer solution. After having reached a distribution equilibrium, the DIFI©-tubes were easily disassembled from the top of the 96-well plate, so that the remaining sample concentration in the aqueous phase could be analyzed by LC/MS.

[2] = In vitro microsomal stability, rat; type: in vitro ADME; settings: rat microsomes, 1 µM; value of 10 = low clearance, essentially below detection limit
Method: (§1) Incubations of a test compound at a concentration of 1 µM with microsomes (0.5 mg/ml) from the appropriate species (human, mouse, or rat) plus cofactor NADPH were performed in 96-well plates at 37°C on a TECAN automated liquid handling system (Tecan Group Ltd., Männedorf, Switzerland). After pre-incubation of the test compound with the microsomes for 10 min, the enzymatic reaction was started by the addition of cofactors. Aliquots of the incubations are removed at 1, 3, 6, 9, 15, 25, 35, and 45 min and are then quenched with 1:3 (v/v) acetonitrile containing internal standards. Samples were then cooled and centrifuged before analysis of the supernatant by LC-MS/MS. Logarithmic Peak area ratios (test compound peak area/internal standard peak area) were plotted against incubation time and a linear fit made to the data with emphasis upon the initial rate of compound disappearance. The slope of the fit was then used to calculate the intrinsic clearance: Clint (µL/min/mg protein) = −slope (min-1) * 1,000/[protein concentration (mg/ml)].

[3] = In vitro microsomal stability, mouse; type: in vitro ADME; settings: mouse microsomes, 1 µM; value of 10 = low clearance, essentially below detection limit
Method: as §1

human ATX = molecular target: T1, human ATX (Homo sapiens, UniProt Q13822); test: Autotaxin inhibition assay (Amplex-Red); type: biochemical; settings: ATX 3 nM, LPC 18:1 30 μM, read-out: hATX IC50
T1 construct: made in house
Method: Plates were sealed and incubated for 5 min. The final assay concentrations were ATX 3 nM, choline oxidase 2 U/ml, horseradish peroxidase 4 U/ml, LPC 18:1 30 μM, Amplex Red 50 μM, and DMSO 2%.

[4] = Artificial membrane permeability assay; type: in vitro ADME; settings: PAMPA, read-out: Permeability Pe
Method: The assay was performed in an automated fashion on 96-well microplates. The permeation of drugs was measured using a “sandwich” construction: A filter-plate was coated with phospholipids (membrane) and placed into a donor compartment containing a compound/buffer solution. Finally, the top of filter-plate was filled with buffer solution (acceptor). Donor concentration was measured at t-start (reference) and compared with the donor and acceptor concentration after a certain time (t-end) to calculate the extent of passage of the compound through the membrane. The main readout of the assay was the permeability value Pe expressed in 10^–6 * cm/s. Secondary readouts determined were the amount of compound in the donor and acceptor compartments as well as the retention in the membrane. Depending on the permeation rate and the membrane retention the compounds were classified as low (Pe < 0.2 and membrane < 20%) or medium and high (Pe ≥ 0.2 or Pe < 0.2 and membrane ≥ 20%). Each sample was measured in triplicate and a standard deviation was determined for the permeation constant Pe.

[5] = In vitro microsomal stability, human; type: in vitro ADME; settings: human microsomes, 1 µM; value of 10 = low clearance, essentially below detection limit
Method: as §1

HT-solubility assay = type: physicochemical; settings: aqueous buffer, thermodynamic from solid; phosphate buffer pH 6.5
Method: This assay was performed on a TECAN station starting from 10 mM DMSO stock solutions of the test compounds. Two aliquots of the test compound were dried and dissolved in phosphate buffer at pH 6.5. Sonication supports optimal re-solubilization. The solutions were then filtered and diluted (3 different dilution levels for each compound) followed by quantification of the dissolved material with Rapid-Fire MS. Quantification was performed for each test compound with a 6-point calibration curve prepared with the same DMSO starting solution.

[6] = Glutathione addition screening; type: in vitro ADME; settings: human liver microsomes + NADPH + GSH
Method: All sample handling was performed based on a 96-well plate format using an automated pipetting system. The test compounds, positive controls (diclofenac, troglitazone, nefazodone, 4-[[1-(4-fluorophenyl)-2-methyl-1H-imidazol-4-yl]ethynyl]-2-methylpyridine) and solvent control (DMSO) were incubated with human liver microsomes supplemented with NADPH and reduced GSH. Stable GSH conjugates whose production can be assumed to be the result of chemically reactive metabolites were detected using a quadrupole time of flight mass spectrometer run in untargeted full scan accurate mass MSE mode (Waters Xevo G1 QTOFMSE; Waters GmbH, Eschborn, Germany). This generic GSH adduct detection method and the assay workflow are taking advantage of the specific fragmentation behavior of the peptide moiety upon collision induced dissociation of GSH adducts and so are largely independent of the conjugate (“X”) itself.

Single dose PK in rats = type: in vivo; settings: rat; for AUC(0-inf) / half-life / clearance / Vd / Cmax / Tmax: plasma; for clearance: read-out: CLp; for Vd: read-out: Vdss
Method: Exposures in animals treated with ATX-inhibitors were determined from K2EDTA treated plasma by LC-MS/MS at different time points. 25 µL of plasma was used for a single concentration determination. Concentration/time profiles were analyzed with MS Excel (Microsoft Corporation, Redmond, WA, United States).
For PK experiments for 7, 13, 14, and 15, respectively, animals were treated either iv or po and exposures were determined at different time points after compound administration. Suitable formulations for 13 were, for example, NMP:Tris buffer pH 8.5 (30%/70%) for iv administration with a nominal drug concentration of 1 mg/ml (dose 2 mg/kg) and a suspension in NMP:gelatine/NaCl (10%/90%) for po administration with a nominal drug concentration of 2.5 mg/ml (dose 10 mg/kg). PK parameters in Table 2 were estimated from the concentration time profiles using Phoenix WinNonlin software (Certara, Princeton, NJ, United States).

SMILES | logD at 12 h [1] | Mic CL r [2] | Mic CL m [3] | IC50 (human ATX) [nM] | Papp [4] [×10⁻⁶ cm/s] | Mic CL h [5] | solubility (HT-solubility assay) [µg/mL] | GSH adducts [6] | AUC(0-inf) (Single dose PK in rats; iv bolus, 3 mg/kg) [ng·h/mL] | half-life (Single dose PK in rats; iv bolus, 3 mg/kg) [min] | clearance (Single dose PK in rats; iv bolus, 3 mg/kg) [mL/min/kg] | Vd (Single dose PK in rats; iv bolus, 3 mg/kg) [L/kg] | AUC(0-inf) (Single dose PK in rats; oral gavage, 30 mg/kg) [ng·h/mL] | Cmax (Single dose PK in rats; oral gavage, 30 mg/kg) [ng/mL] | Tmax (Single dose PK in rats; oral gavage, 30 mg/kg) [min] | half-life (Single dose PK in rats; oral gavage, 30 mg/kg) [min] | Oral F (Single dose PK in rats; oral gavage, 30 mg/kg) [%]
O=C(CCc1ccc(OC(F)(F)F)cc1)N1C[C@@H]2CN(C(=O)c3ccc4[nH]nnc4c3)C[C@H]2C1 [Compound 14, 1-[(3aR,6aR)-5-(1H-benzotriazole-5-carbonyl)-hexahydro-pyrrolo[3,4-c]pyrrol-2-yl]-3-(4-trifluoromethoxy-phenyl)-propan-1-one] | 2.5 | 40 µL/m/mg prot | 27 µL/m/mg prot | 6 | 2.7 | 10 µL/m/mg prot | 46 (≈ 97.2 µM) | Neg | 1070 | 78 | 47 | 0.9 | 660 | 130 | 30 | 228 | 6
O=C(COc1ccc(OC(F)(F)F)cc1)N1C[C@@H]2CN(C(=O)c3ccc4[nH]nnc4c3)C[C@H]2C1 [Compound 12, 1-[(3aS,6aS)-5-(1H-Benzotriazole-5-carbonyl)-hexahydro-pyrrolo[3,4-c]pyrrol-2-yl]-2-(4-trifluoromethoxy-phenoxy)-ethanone] | 3.2 | 10/na/10 µL/m/mg prot | – | 137 | 1.8 | 10/na/10 µL/m/mg prot | 8 (≈ 16.8 µM) | Neg | – | – | – | – | – | – | – | – | –
CS(=O)(=O)c1cc(Cl)cc(COC(=O)N2C[C@@H]3CN(C(=O)c4ccc5[nH]nnc5c4)C[C@H]3C2)c1 [Compound 15, (3aS,6aS)-5-(1H-Benzotriazole-5-carbonyl)-hexahydro-pyrrolo[3,4-c]pyrrole-2-carboxylic acid 3-chloro-5-methanesulfonyl-benzyl ester] | 2 | – | 10/10/na µL/m/mg prot | 8 | 0.4 | 10/10/na µL/m/mg prot | 190 (≈ 377 µM) | Neg | 321 | 21 | 156 | 1.7 | 30 | 18 | 15 | 114 | 1.1
